These are literature values, as cited in patent US20220133758A1, “TREATMENT OF INFLAMMATORY BOWEL DISEASES WITH 2'-FUCOSYLLACTOSE COMPOUNDS” (CHILDREN'S HOSPITAL MEDICAL CENTER, priority 2017, published 2022).

For data set [1] the following is noted: infliximab or adalimumab anti-TNF therapy, despite optimal therapeutic drug monitoring and dosing.
The test system of data set [2] is fecal Bifidobacterium.
Data set [3] deals with EC genes regulating butyrate transport, signaling, and mitochondrial oxidation. The note with it: IBD patients who experience mucosal healing.

As to adalimumab, the patients relapsed in data set [1] is given as 37%.
With “infliximab: monoclonal anti-TNF antibody”, the Bifidobacterium abundance entry in data set [2] (pediatric CD study) was “not associated with increased Bifidobacterium abundance”. For the same substance, in data set [2] (suppression of mucosal inflammation), the correction of dysbiosis result is recorded as “only partially corrects”. In addition, the “inflammatory suppression of EC genes regulating butyrate transport, signaling, and mitochondrial oxidation” value in data set [3] is “largely corrected”. For the same substance, the patients relapsed in data set [1] is listed as 37%.
